Experiment [1] concerns aminoglycoside aptamer (tobramycin-binding aptamer) (DNA, aptamer) GGGACTTGGTTTAGGTAATGAGTCCC
As to the kind of experiment: square-wave pulsed OECT (aptamer on gate), 70 Hz. The note with it: 137 mM NaCl, 2.7 mM KCl; 1x PBS, ambient temperature; saturable Langmuir-Hill isotherm, reversible; immobilised aptamer.

Experiment [2] shares this test system. In words: three-electrode square-wave voltammetry, 240 Hz. The note with it: 137 mM NaCl, 2.7 mM KCl; 1x PBS, ambient temperature; saturable Langmuir-Hill isotherm, reversible; immobilised aptamer.

With `NC[C@H]1O[C@H](O[C@H]2[C@H](O)[C@@H](O[C@H]3O[C@H](CO)[C@@H](O)[C@H](N)[C@H]3O)[C@H](N)C[C@@H]2N)[C@H](N)C[C@@H]1O`, the binding result in experiment [1] and in experiment [2] was “yes” in each case.
